The supplement of paper PMC10307832

Columns and labels:
Experiment in all cases: relative viability (nuclei count vs DMSO), 5 days (fraction); higher = more cells survive
RERF-LC-KJ = tested on: RERF-LC-KJ
Summary of the method: (§1)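 Relative viability is defined as nuclei in treated wells over nuclei in vehicle wells. Duplicate plates were run and medians reported. Lung cancer cell lines in 1536-well plates were dosed by pin tool one day after seeding, with one drug or with a fixed anchor-drug dose plus five library-drug doses (not always all listed) in √10 steps, and nuclei were counted after 5 days.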

SW 900 = tested on: SW 900
Summary of the method: as §1

NCI-H1651 = tested on: NCI-H1651
Summary of the method: as §1

NCI-H460 = tested on: NCI-H460
Summary of the method: as §1

PC-14 = tested on: PC-14
Summary of the method: as §1

LCLC-103H = tested on: LCLC-103H
Summary of the method: as §1

COR-L23 = tested on: COR-L23
Summary of the method: as §1

LCLC-97TM1 = tested on: LCLC-97TM1
Summary of the method: as §1

NCI-H1650 = tested on: NCI-H1650
Summary of the method: as §1

NCI-H1793 = tested on: NCI-H1793
Summary of the method: as §1

SW 1573 = tested on: SW 1573
Summary of the method: as §1

LK-2 = tested on: LK-2
Summary of the method: as §1

NCI-H2347 = tested on: NCI-H2347
Summary of the method: as §1

NCI-H650 = tested on: NCI-H650
Summary of the method: as §1

NCI-H727 = tested on: NCI-H727
Summary of the method: as §1

PC-3 [JPC-3] = tested on: PC-3 [JPC-3]
Summary of the method: as §1

201T = tested on: 201T
Summary of the method: as §1

A-427 = tested on: A-427
Summary of the method: as §1

LU99A = tested on: LU99A
Summary of the method: as §1

NCI-H23 = tested on: NCI-H23
Summary of the method: as §1

H3255 = tested on: H3255
Summary of the method: as §1

NCI-H838 = tested on: NCI-H838
Summary of the method: as §1

NCI-H1944 = tested on: NCI-H1944
Summary of the method: as §1

Clc1ccc(Nc2nnc(Cc3ccncc3)c3ccccc23)cc1 [Vatalanib] + O=C(CCCCCCC(=O)Nc1ccccc1)NO [Vorinostat] (partner 1 µM)
relative viability (RERF-LC-KJ; first compound 0.04 µM): 0.714 | relative viability (RERF-LC-KJ; first compound 0.1265 µM): 0.747 | relative viability (RERF-LC-KJ; first compound 0.4 µM): 0.69 | relative viability (RERF-LC-KJ; first compound 1.265 µM): 0.665 | relative viability (RERF-LC-KJ; first compound 4 µM): 0.651 | relative viability (SW 900; first compound 0.04 µM): 0.551 | relative viability (SW 900; first compound 0.1265 µM): 0.549 | relative viability (SW 900; first compound 0.4 µM): 0.583 | relative viability (SW 900; first compound 1.265 µM): 0.344 | relative viability (SW 900; first compound 4 µM): 0.591 | relative viability (NCI-H1651; first compound 0.04 µM): 0.506 | relative viability (NCI-H1651; first compound 0.1265 µM): 0.606 | relative viability (NCI-H1651; first compound 0.4 µM): 0.594 | relative viability (NCI-H1651; first compound 1.265 µM): 0.524 | relative viability (NCI-H1651; first compound 4 µM): 0.557 | relative viability (NCI-H460; first compound 0.04 µM): 0.859 | relative viability (NCI-H460; first compound 0.1265 µM): 0.636 | relative viability (NCI-H460; first compound 0.4 µM): 0.765 | relative viability (NCI-H460; first compound 1.265 µM): 0.702 | relative viability (NCI-H460; first compound 4 µM): 0.61 | relative viability (PC-14; first compound 0.04 µM): 0.746 | relative viability (PC-14; first compound 0.1265 µM): 0.721 | relative viability (PC-14; first compound 0.4 µM): 0.801 | relative viability (PC-14; first compound 1.265 µM): 0.716 | relative viability (PC-14; first compound 4 µM): 0.62 | relative viability (LCLC-103H; first compound 0.04 µM): 0.776 | relative viability (LCLC-103H; first compound 0.1265 µM): 0.765 | relative viability (LCLC-103H; first compound 0.4 µM): 0.826 | relative viability (LCLC-103H; first compound 1.265 µM): 0.738 | relative viability (LCLC-103H; first compound 4 µM): 0.726 | relative viability (COR-L23; first compound 0.04 µM): 0.356 | relative viability (COR-L23; first compound 0.1265 µM): 0.553 | relative viability (COR-L23; first compound 0.4 µM): 0.499 | relative viability (COR-L23; first compound 1.265 µM): 0.417 | relative viability (COR-L23; first compound 4 µM): 0.469 | relative viability (LCLC-97TM1; first compound 0.04 µM): 0.601 | relative viability (LCLC-97TM1; first compound 0.1265 µM): 0.613 | relative viability (LCLC-97TM1; first compound 0.4 µM): 0.804 | relative viability (LCLC-97TM1; first compound 1.265 µM): 0.65 | relative viability (LCLC-97TM1; first compound 4 µM): 0.649 | relative viability (NCI-H1650; first compound 0.04 µM): 0.555 | relative viability (NCI-H1650; first compound 0.1265 µM): 0.517 | relative viability (NCI-H1650; first compound 0.4 µM): 0.616 | relative viability (NCI-H1650; first compound 1.265 µM): 0.473 | relative viability (NCI-H1650; first compound 4 µM): 0.534 | relative viability (NCI-H1793; first compound 0.04 µM): 0.767 | relative viability (NCI-H1793; first compound 0.1265 µM): 0.845 | relative viability (NCI-H1793; first compound 0.4 µM): 0.97 | relative viability (NCI-H1793; first compound 1.265 µM): 0.66 | relative viability (NCI-H1793; first compound 4 µM): 0.71 | relative viability (SW 1573; first compound 0.1265 µM): 0.812 | relative viability (SW 1573; first compound 0.4 µM): 1.4 | relative viability (SW 1573; first compound 1.265 µM): 0.839 | relative viability (SW 1573; first compound 4 µM): 0.624 | relative viability (LK-2; first compound 0.04 µM): 0.388 | relative viability (LK-2; first compound 0.1265 µM): 0.314 | relative viability (LK-2; first compound 0.4 µM): 0.328 | relative viability (LK-2; first compound 1.265 µM): 0.308 | relative viability (LK-2; first compound 4 µM): 0.222 | relative viability (NCI-H2347; first compound 0.04 µM): 0.473 | relative viability (NCI-H2347; first compound 0.1265 µM): 0.772 | relative viability (NCI-H2347; first compound 0.4 µM): 0.516 | relative viability (NCI-H2347; first compound 1.265 µM): 0.501 | relative viability (NCI-H2347; first compound 4 µM): 0.586 | relative viability (NCI-H650; first compound 0.04 µM): 0.397 | relative viability (NCI-H650; first compound 0.1265 µM): 0.496 | relative viability (NCI-H650; first compound 0.4 µM): 0.453 | relative viability (NCI-H650; first compound 1.265 µM): 0.414 | relative viability (NCI-H650; first compound 4 µM): 0.443 | relative viability (NCI-H727; first compound 0.1265 µM): 1.28 | relative viability (NCI-H727; first compound 0.4 µM): 1.17 | relative viability (NCI-H727; first compound 1.265 µM): 1.1 | relative viability (NCI-H727; first compound 4 µM): 1.17 | relative viability (PC-3 [JPC-3]; first compound 0.04 µM): 0.837 | relative viability (PC-3 [JPC-3]; first compound 0.1265 µM): 0.736 | relative viability (PC-3 [JPC-3]; first compound 0.4 µM): 0.721 | relative viability (PC-3 [JPC-3]; first compound 1.265 µM): 0.342 | relative viability (PC-3 [JPC-3]; first compound 4 µM): 0.688 | relative viability (201T; first compound 0.04 µM): 0.995 | relative viability (201T; first compound 0.1265 µM): 1.01 | relative viability (201T; first compound 0.4 µM): 1.06 | relative viability (201T; first compound 1.265 µM): 1.01 | relative viability (201T; first compound 4 µM): 1.07 | relative viability (A-427; first compound 0.04 µM): 0.874 | relative viability (A-427; first compound 0.1265 µM): 0.852 | relative viability (A-427; first compound 0.4 µM): 0.945 | relative viability (A-427; first compound 4 µM): 0.83 | relative viability (LU99A; first compound 0.04 µM): 0.554 | relative viability (LU99A; first compound 0.1265 µM): 0.544 | relative viability (LU99A; first compound 0.4 µM): 0.535 | relative viability (LU99A; first compound 1.265 µM): 0.472 | relative viability (LU99A; first compound 4 µM): 0.467 | relative viability (NCI-H23; first compound 0.04 µM): 0.57 | relative viability (NCI-H23; first compound 0.1265 µM): 0.558 | relative viability (NCI-H23; first compound 0.4 µM): 0.77 | relative viability (NCI-H23; first compound 1.265 µM): 0.495 | relative viability (NCI-H23; first compound 4 µM): 0.546 | relative viability (H3255; first compound 0.04 µM): 0.744 | relative viability (H3255; first compound 0.1265 µM): 0.832 | relative viability (H3255; first compound 0.4 µM): 0.714 | relative viability (H3255; first compound 1.265 µM): 0.746 | relative viability (H3255; first compound 4 µM): 0.689 | relative viability (NCI-H838; first compound 0.04 µM): 0.738 | relative viability (NCI-H838; first compound 0.1265 µM): 0.761 | relative viability (NCI-H838; first compound 0.4 µM): 0.775 | relative viability (NCI-H838; first compound 1.265 µM): 0.62 | relative viability (NCI-H838; first compound 4 µM): 0.694 | relative viability (NCI-H1944; first compound 0.04 µM): 0.546 | relative viability (NCI-H1944; first compound 0.1265 µM): 0.523 | relative viability (NCI-H1944; first compound 0.4 µM): 0.676 | relative viability (NCI-H1944; first compound 1.265 µM): 0.529 | relative viability (NCI-H1944; first compound 4 µM): 0.526
